Results on 26 compounds are retold here after PubChem BioAssay (NCI).

Assay in all cases: NCI tumour cell line growth inhibition, 48 h
The test system of assay [1] is SNB-19 CNS.
Assay [2] relates to COLO 205 colon.
The subject of assay [3] is SN12C renal.
The subject of assay [4] is SK-OV-3 ovarian.
Assay [5] deals with CCRF-CEM leukemia.
For assay [6], the system named is HS 578T breast.
Assay [7] has as its system KM12 colon.
In assay [8] the test system is SF-268 CNS.
The test system of assay [9] is HT29 colon.
In assay [10] the test system is M14 melanoma.
The test system of assay [11] is MDA-N.

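A five-concentration, 48-hour dose response in 96-well plates underlies each endpoint, interpolated linearly between surrounding concentrations. TGI denotes the concentration required for complete inhibition of growth.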 Some results are limits rather than exact numbers.

Take `Cc1ccc(S(=O)(=O)N/N=C/C(=C/c2ccc(Cl)cc2)CC(/C=N/NS(=O)(=O)c2ccc(C)cc2)=C\c2ccc(Cl)cc2)cc1`: the TGI in assay [1] was more than 100 µM; in assay [2], 16.9 µM; in [3], 35 µM; in assay [4] it was more than 100 µM; in assay [5], 8.8 µM; in assay [6] it was 21.5 µM. The TGI in assay [7] is 47.2 µM; in assay [8], 55.2 µM; in assay [9] it was 24.1 µM; in assay [10] it was 48.1 µM; in [11], 26.7 µM.

`O=C(O)/C=N\Nc1nc2ccccc2[nH]1`: the TGI in [1], in assay [2], in [3], in [4], in [5] and in assay [6] was more than 100 µM throughout. Besides, the TGI in [7], in assay [8], in assay [9], in [10] and in [11] was more than 100 µM each time.

Consider `CCC(C)(C)/C(CC(O)(C(F)(F)F)C(F)(F)F)=N\O`, for which the TGI in [1], in [2], in assay [3], in [4], in assay [5] and in assay [6] was more than 100 µM each time. Besides, the TGI in assay [7], in [8], in [9], in assay [10] and in assay [11] was more than 100 µM each time.

As for `CC[N+](CC)(CCNCC(N)=O)CC(N)=O`, the TGI in assay [1], in [2], in [3], in assay [4], in [5] and in [6] was more than 10 µM throughout. For the same compound, the TGI in assay [7], in assay [8], in [9], in [10] and in [11] was more than 10 µM each time.

Consider `CC(=O)c1c2c(cc3c1CC1(Cc4ccccc4C1=O)C3)CCC2` (stereo not given), for which the TGI was more than 100 µM in assay [1]; 30.7 µM in [2]; more than 100 µM in assay [3]; more than 100 µM in assay [4]; more than 100 µM in assay [5]; more than 100 µM in assay [6]. Also, the TGI was 49 µM in assay [7]; more than 100 µM in assay [8]; more than 100 µM in assay [9]; 74.5 µM in [10]; more than 100 µM in assay [11].

As to `CC(C)(C)C(=O)OCC1CCC[N+]2(C)CCCCC12` (stereo not given), the TGI in assay [1], in assay [2], in assay [3], in assay [4], in [5] and in assay [6] was more than 100 µM each time. Further, the TGI in assay [7], in assay [8], in [9], in assay [10] and in assay [11] was more than 100 µM in each case.

Turning to `O=C(O)c1nc(-c2ccccc2)ncc1-c1nnnn1-c1ccccc1`, the TGI in assay [1], in [2], in assay [3], in assay [4], in assay [5] and in assay [6] was more than 100 µM throughout. In addition, the TGI in assay [7], in assay [8], in assay [9], in assay [10] and in [11] was more than 100 µM throughout.

With `Clc1c(Cl)c(Cl)c2nn(C3CCCO3)nc2c1Cl` (stereo not given), the TGI in [1] was more than 100 µM; in [2] it was more than 100 µM; in assay [3] it was more than 100 µM; in assay [4], more than 100 µM; in assay [5] it was more than 100 µM; in assay [6], 49.5 µM. Besides, the TGI in assay [8], in assay [9], in [10] and in assay [11] was more than 100 µM in each case.

With `COc1cc(C2c3cc4c(cc3OC(N3CCCC3)C2C)OCO4)cc(OC)c1O` (stereo not given), the TGI in assay [1] was 38.9 µM; in assay [2], 63 µM; in assay [3], more than 83.7 µM; in assay [4] it was 62.4 µM; in [5], more than 100 µM; in assay [6], 37.4 µM. The TGI in assay [7] was more than 100 µM; in assay [8], more than 100 µM; in assay [9] it was more than 87.7 µM; in assay [10], more than 51.1 µM; in [11], 6.17 µM.

Regarding `CCOC(=O)C1(Cc2ccc3c(c2)CCC3)Cc2cc3c(cc2C1)CCC3`, the TGI in [1] is more than 100 µM; in [2], more than 100 µM; in assay [3] it was more than 100 µM; in [4], 88.2 µM; in [5], 35 µM; in assay [6], more than 100 µM. For the same compound, the TGI in assay [7] is more than 100 µM; in assay [8] it was more than 100 µM; in [9] it was 37.9 µM; in assay [10], 55.9 µM; in assay [11], more than 100 µM.

On to `COc1cc(-c2cc(=O)c3c(OC)c(OC)c(OC)c(OC)c3o2)c(OC)c(OC)c1OC`, for which the TGI in assay [1], in assay [2], in assay [3], in assay [4], in [5] and in [6] was more than 100 µM in each case. Besides, the TGI in assay [7] was 90.3 µM; in assay [8] it was more than 100 µM; in assay [9], more than 100 µM; in [10] it was more than 100 µM; in assay [11] it was more than 100 µM.

Regarding `COc1cc(/C=C2\CCC(C)C3C2=NN(C(C)=O)C3c2cc(OC)c(OC)c(OC)c2)cc(OC)c1OC` (stereo not given), the TGI in [1] is more than 100 µM; in [2], more than 100 µM; in assay [3], more than 100 µM; in assay [4], more than 100 µM; in assay [5] it was more than 100 µM; in assay [6] it was more than 92.2 µM. Also, the TGI in [7], in assay [8], in [9], in assay [10] and in [11] was more than 100 µM in each case.

On to `CN(c1ccc(Cl)cc1)S(=O)(=O)c1cccc([N+](=O)[O-])c1`, for which the TGI in [1], in assay [2], in assay [3], in assay [4], in assay [5] and in assay [6] was more than 100 µM in each case. In addition, the TGI in assay [7], in assay [8], in assay [9], in assay [10] and in assay [11] was more than 100 µM each time.

With `CC1=C(C#N)C(C#N)(C#N)C(NN(C)C)C1` (stereo not given), the TGI was 16.1 µM in assay [2]; 27.3 µM in [3]; more than 100 µM in assay [4]; more than 100 µM in assay [5]; more than 100 µM in [6]; 31.8 µM in assay [7]. For the same compound, the TGI in [8] is 78.7 µM; in assay [9] it was 38.3 µM; in [10], more than 100 µM; in assay [11], 21.9 µM.

On to `CN1C(=O)N/C(=C\c2ccc(S(=O)(=O)NN)cc2)C1=O`, for which the TGI in assay [1], in [2], in assay [3], in assay [4], in [5] and in assay [6] was more than 100 µM throughout. Besides, the TGI in [7], in [8], in assay [9], in assay [10] and in [11] was more than 100 µM throughout.

Turning to `O=[N+]([O-])c1ccc(Cl)c(C=NC23CC4CC(CC(C4)C2)C3)c1`, the TGI in assay [1], in assay [2], in assay [3], in assay [4], in assay [5] and in [6] was more than 10 µM each time. The TGI in assay [7], in [8], in [9], in assay [10] and in [11] was more than 10 µM throughout.

Take `CC1(CCCO)CCCCCC(C)(CCCO)C1=O` (stereo not given): the TGI in [1], in assay [2], in assay [3], in [4], in assay [5] and in [6] was more than 100 µM each time. For the same compound, the TGI in assay [7], in assay [8], in [9], in [10] and in [11] was more than 100 µM in each case.

On to `CCC(=O)NC(Nc1cccc(F)c1C)(C(F)(F)F)C(F)(F)F`, for which the TGI in assay [1], in assay [2], in [4], in assay [5], in assay [6] and in [7] was more than 100 µM throughout. Further, the TGI in assay [8], in assay [9], in assay [10] and in assay [11] was more than 100 µM in each case.

Regarding `COc1ccc(/C=C(/C(=O)c2ccc(Cl)cc2)N2C=CC=CC2=C(C#N)C#N)cc1OC`, the TGI is 32.1 µM in assay [1]; 3.32 µM in assay [2]; 47.7 µM in assay [3]; more than 82.1 µM in [4]; 0.665 µM in [5]; 26.3 µM in [6]. Moreover, the TGI in [7] amounted to 42.1 µM; in [8] it was 17.2 µM; in [9], 13.1 µM; in assay [10] it was 11.4 µM; in assay [11], 20.1 µM.

For `CN(c1ccc(Cl)cc1)S(=O)(=O)c1ccc([N+](=O)[O-])cc1`, the TGI in assay [1], in assay [2], in [3], in assay [4], in assay [5] and in assay [6] was more than 100 µM each time. For the same compound, the TGI in assay [7], in [8], in [9], in assay [10] and in [11] was more than 100 µM in each case.

For `CNc1ccc(OC)cc1S(=O)(=O)c1ccccc1[N+](=O)[O-]`, the TGI in assay [1], in assay [2], in assay [3], in [4], in assay [5] and in assay [6] was more than 100 µM each time. Also, the TGI in [8], in [9], in assay [10] and in [11] was more than 100 µM each time.

Consider `O=C(O)c1n[nH]nc1Cl`, for which the TGI in assay [2], in assay [3], in [4], in [5], in [6] and in assay [7] was more than 100 µM each time. Further, the TGI in assay [8], in [9], in assay [10] and in [11] was more than 100 µM in each case.

With `CC(C)(Cc1ccccc1)NC1=NCCO1`, the TGI in assay [1], in assay [2], in assay [4], in assay [5], in [6] and in assay [7] was more than 100 µM each time. The TGI in assay [9], in [10] and in [11] was more than 100 µM throughout.

Turning to `CS(=O)(=O)Nc1ccc(N2Cc3cnc4ccc5[nH]ccc2c5c34)cc1`, the TGI in assay [1] is 42 µM; in [2] it was 32.2 µM; in assay [3] it was 35 µM; in assay [5], more than 100 µM; in assay [6], more than 100 µM; in [7], more than 100 µM. For the same compound, the TGI in assay [9] worked out at 95.7 µM; in assay [10], 32.2 µM; in [11] it was 29.3 µM.

Consider `O=C(CC(=O)Nc1cccc(C(=O)O)c1)Nc1cccc(C(=O)O)c1`, for which the TGI in assay [1], in assay [2], in assay [3], in assay [5], in assay [6] and in [7] was more than 100 µM throughout. The TGI in assay [8], in assay [9], in assay [10] and in assay [11] was more than 100 µM throughout.

In the case of `c1ccc(N=C2SC(=NC3CCCCC3)N(C3CCCCC3)C2=Nc2ccccc2)cc1`, the TGI in [1], in assay [2], in assay [3], in assay [4], in assay [5] and in assay [6] was more than 100 µM each time. Further, the TGI in assay [7], in assay [9], in assay [10] and in assay [11] was more than 100 µM in each case.
